Key:
[1] = tested on: Influenza strain A549_A/WSN/33 (H1N1); test: Influenza antiviral assay (neuraminidase fluorescence readout); assay type: cell-based, Influenza virus; details: Influenza A virus, read-out: % Inhibition (EC50 class, Table 2)
[2] = target: Full length EN PA (influenza PA endonuclease) (Influenza A virus, UniProt P15659); test: EN PA FRET inhibition assay; assay type: biochemical; details: FRET probe, mean of a minimum of two independent experiments, read-out: Potency (IC50 class, Table 3)

Row | SMILES | EC50 [1] | IC50 [2]
1 | CCN1C[C@@H](C(c2cccc(C)c2)c2cccc(C)c2)n2ncc(=O)c(O)c2C1=O [Compound 36-B] | < 20 µM | ≥ 1 µM
2 | CC#Cc1ccn(C(c2ccccc2)C2CN(C)C(=O)c3c(O)c(=O)cnn32)n1 (stereo not drawn) [Compound 115] | < 20 µM | < 0.25 µM
3 | CN1CC(C(Cc2ccccc2)c2ccccc2)n2ncc(=O)c(O)c2C1=O (stereo not drawn) [Compound 103] | 20 to 100 µM | < 0.25 µM
4 | CN1C[C@@H](C2c3cc(Cl)ccc3CCc3ccc(Cl)cc32)n2ncc(=O)c(O)c2C1=O [Compound 52-A] | < 20 µM | < 0.25 µM
5 | CC(C)N1C[C@H](C(c2ccccc2)c2ccccc2)n2ncc(=O)c(OC(=O)C3CCOCC3)c2C1=O [Compound 120] | < 20 µM | < 0.25 µM
6 | CN1C[C@H](C2c3cc(F)ccc3CCc3ccc(F)cc32)n2ncc(=O)c(O)c2C1=O [Compound 45-A] | < 20 µM | < 0.25 µM
7 | CCN1CC(C(c2cccc(C)c2)c2cccc(C)c2)n2ncc(=O)c(O)c2C1=O (stereo not drawn) [Compound 36] | < 20 µM | < 0.25 µM
8 | O=C1NCC(C2c3ccccc3CSc3cc(Cl)ccc32)n2ncc(=O)c(O)c21 (stereo not drawn) [Compound 16] | < 20 µM | 0.25 to 1 µM
9 | CN1CC(C(c2cccc(Cl)c2)c2cccc(Cl)c2)n2ncc(=O)c(O)c2C1=O (stereo not drawn) [Compound 28] | < 20 µM | < 0.25 µM
10 | CN1CC(C(c2ccc(F)cc2)c2ccc(F)cc2)n2ncc(=O)c(O)c2C1=O (stereo not drawn) [Compound 38] | < 20 µM | < 0.25 µM
11 | Cc1cccc(C(c2cccc(C)c2)C2CN(C(C)C)C(=O)c3c(O)c(=O)cnn32)c1 (stereo not drawn) [Compound 48] | < 20 µM | < 0.25 µM
12 | CCN1C[C@H](C(c2cccc(F)c2)c2cccc(F)c2)n2ncc(=O)c(OC(=O)C(C)C)c2C1=O [Compound 72-A] | < 20 µM | < 0.25 µM
13 | CCCN1C[C@H](C(c2cccc(F)c2)c2cccc(F)c2)n2ncc(=O)c(O)c2C1=O [Compound 74-A] | < 20 µM | < 0.25 µM
14 | CC(C)C(=O)Oc1c2n(ncc1=O)C(C1c3cccc(F)c3CCc3c(F)cccc31)CN(C(C)C)C2=O (stereo not drawn) [Compound 114] | < 20 µM | < 0.25 µM
15 | CN1CC(C(c2ccccc2)c2cccc(C#N)c2)n2ncc(=O)c(O)c2C1=O (stereo not drawn) [Compound 100] | < 20 µM | < 0.25 µM
16 | C[C@H](N1C[C@H](C(c2ccccc2)c2ccccc2)n2ncc(=O)c(O)c2C1=O)C(F)(F)F [Compound 18-A] | < 20 µM | < 0.25 µM
17 | CC(C)N1C[C@H]([C@H](c2ccccc2)n2ccc(C#N)n2)n2ncc(=O)c(O)c2C1=O [Compound 127-A] | < 20 µM | < 0.25 µM
18 | CN1CC(C2c3ccccc3CCc3cc(Cl)ccc32)n2ncc(=O)c(O)c2C1=O (stereo not drawn) [Compound 29] | < 20 µM | < 0.25 µM
19 | CN1C[C@H](C(c2ccccc2)c2ccccc2)n2ncc(=O)c(O)c2C1=O [Compound 1-A] | < 20 µM | < 0.25 µM
20 | CN1C[C@H]([C@H](c2ccccc2)c2cccc(OC3CC3)c2)n2ncc(=O)c(O)c2C1=O [Compound 105-B] | < 20 µM | < 0.25 µM

Row | SMILES | EC50 [1] | IC50 [2]
21 | CN1CC(C2c3ccccc3COc3ccccc32)n2ncc(=O)c(O)c2C1=O (stereo not drawn) [Compound 57] | < 20 µM | < 0.25 µM
22 | C[C@@H](N1C[C@H](C(c2ccccc2)c2ccccc2)n2ncc(=O)c(O)c2C1=O)C(F)(F)F [Compound 110-A] | < 20 µM | < 0.25 µM
23 | CC(C)N1C[C@H](C(c2ccccc2)c2ccccc2)n2ncc(=O)c(OCOC(=O)C(C)(C)N)c2C1=O [Compound 113-A] | < 20 µM | < 0.25 µM
24 | CCC#Cc1ccn(C(c2ccccc2)C2CN(C(C)C)C(=O)c3c(O)c(=O)cnn32)n1 (stereo not drawn) [Compound 126] | < 20 µM | < 0.25 µM
25 | CN1C[C@@H](C2c3cc(F)ccc3CCc3c(F)cccc32)n2ncc(=O)c(O)c2C1=O (stereo partly drawn) [Compound 71] | 20 to 100 µM | 0.25 to 1 µM
26 | CCC#Cc1ccn([C@@H](c2ccccc2)[C@H]2CN(C)C(=O)c3c(O)c(=O)cnn32)n1 [Compound 123] | < 20 µM | < 0.25 µM
27 | O=C1c2c(O)c(=O)cnn2C(C(c2ccccc2)c2ccccc2)CN1C1CCOCC1 (stereo not drawn) [Compound 63] | < 20 µM | < 0.25 µM
28 | CN1CC(C(c2cccc(Cl)c2)c2ccccc2F)n2ncc(=O)c(O)c2C1=O (stereo not drawn) [Compound 62] | < 20 µM | < 0.25 µM
29 | CC(C)N1CC(C2c3cccc(F)c3CCc3c(F)cccc32)n2ncc(=O)c(O)c2C1=O (stereo not drawn) [Compound 51] | < 20 µM | < 0.25 µM
30 | C#Cc1cn(C(c2ccccc2)C2CN(C)C(=O)c3c(O)c(=O)cnn32)cn1 (stereo not drawn) [Compound 116] | < 20 µM | < 0.25 µM
31 | CC#Cc1ccn([C@H](c2ccccc2)[C@H]2CN(C)C(=O)c3c(O)c(=O)cnn32)n1 [Compound 115-C] | < 20 µM | < 0.25 µM
32 | CC(C)N1C[C@@H]([C@@H](c2ccccc2)n2ccc(C#N)n2)n2ncc(=O)c(O)c2C1=O [Compound 127-D] | < 20 µM | 0.25 to 1 µM
33 | CN1C[C@H]([C@@H]2c3cc(F)ccc3CCc3c(F)cccc32)n2ncc(=O)c(O)c2C1=O [Compound 71-A] | < 20 µM | < 0.25 µM
34 | CCN1C[C@H](C(c2cccc(F)c2)c2cccc(F)c2)n2ncc(=O)c(OCOC(=O)NCCN3CCOCC3)c2C1=O [Compound 91-A] | 20 to 100 µM | ≥ 1 µM
35 | COc1cccc(C(c2ccccc2)C2CN(C)C(=O)c3c(O)c(=O)cnn32)c1 (stereo not drawn) [Compound 26] | < 20 µM | < 0.25 µM
36 | CN1C[C@@H]([C@@H](c2ccccc2)c2cccc(OC3CC3)c2)n2ncc(=O)c(O)c2C1=O [Compound 105-D] | 20 to 100 µM | ≥ 1 µM
37 | CN1CC(C2c3ccccc3CCc3ccccc32)n2ncc(=O)c(O)c2C1=O (stereo not drawn) [Compound 7] | < 20 µM | < 0.25 µM
38 | CC(C)N1CC(=C2c3ccccc3CCc3ccccc32)n2ncc(=O)c(O)c2C1=O [Compound 30] | 20 to 100 µM | < 0.25 µM
39 | CCN1C[C@H](C(c2ccccc2)c2ccccc2)n2ncc(=O)c(O)c2C1=O [Compound 5-A] | < 20 µM | < 0.25 µM
40 | CCN1C[C@H](C(c2cccc(F)c2)c2cccc(F)c2)n2ncc(=O)c(OCOC(=O)[C@@H](N)C(C)C)c2C1=O [Compound 95-A] | < 20 µM | < 0.25 µM

Row | SMILES | EC50 [1] | IC50 [2]
41 | CC(C)N1C[C@H](C2c3cccc(F)c3CCc3c(F)cccc32)n2ncc(=O)c(O)c2C1=O [Compound 51-A] | < 20 µM | < 0.25 µM
42 | CN1CC(C(c2ccccc2)c2cccc(OCC3CC3)c2)n2ncc(=O)c(O)c2C1=O (stereo not drawn) [Compound 55] | 20 to 100 µM | < 0.25 µM
43 | CC(C)CC(=O)Oc1c2n(ncc1=O)[C@@H](C(c1ccccc1)c1ccccc1)CN(C(C)C)C2=O [Compound 118] | < 20 µM | 0.25 to 1 µM
44 | CN1C[C@H]([C@H](c2ccccc2)n2cnc(I)c2)n2ncc(=O)c(O)c2C1=O [Compound 107-B] | 20 to 100 µM | < 0.25 µM
45 | CC(C)N1C[C@H](C(c2ccccc2)c2cccc(Cl)c2)n2ncc(=O)c(O)c2C1=O (single isomer, unassigned) [Compound 73-A] | < 20 µM | < 0.25 µM
46 | C[C@@H](N1C[C@@H](C(c2ccccc2)c2ccccc2)n2ncc(=O)c(O)c2C1=O)C(F)(F)F [Compound 18-B] | < 20 µM | < 0.25 µM
47 | CC(C)C(=O)Oc1c2n(ncc1=O)[C@@H](C(c1ccccc1)c1ccccc1)CN(C(C)C)C2=O [Compound 69-A] | < 20 µM | < 0.25 µM
48 | CC(C)CN1C[C@H](C(c2ccccc2)c2ccccc2)n2ncc(=O)c(O)c2C1=O [Compound 98-A] | < 20 µM | < 0.25 µM
49 | CN1C[C@H]([C@H]2c3cc(F)ccc3CCc3c(F)cccc32)n2ncc(=O)c(O)c2C1=O [Compound 71-B] | < 20 µM | < 0.25 µM
50 | CN1C[C@H]([C@@H](c2ccccc2)c2ccccn2)n2ncc(=O)c(O)c2C1=O [Compound 128] | < 20 µM | < 0.25 µM
51 | O=C1c2c(O)c(=O)cnn2[C@H](C2c3ccccc3CCc3ccccc32)CN1Cc1ccccc1 [Compound 13-B] | < 20 µM | 0.25 to 1 µM
52 | CN1C[C@@H](C2c3ccc(F)cc3CCc3c(F)cccc32)n2ncc(=O)c(O)c2C1=O (stereo partly drawn) [Compound 81-B] | 20 to 100 µM | < 0.25 µM
53 | CCN1CC(C(c2ccccc2)c2cccc(C)c2)n2ncc(=O)c(O)c2C1=O (stereo not drawn) [Compound 49] | < 20 µM | < 0.25 µM
54 | CC(C)N1C[C@@H]([C@@H](c2ccccc2)c2ccccn2)n2ncc(=O)c(O)c2C1=O [Compound 138] | < 20 µM | < 0.25 µM
55 | CC(C)N1CC(C(c2ccccc2)c2cccc(Cl)c2)n2ncc(=O)c(O)c2C1=O (stereo not drawn) [Compound 20] | < 20 µM | < 0.25 µM
56 | CC#Cc1ccn([C@@H](c2ccccc2)[C@@H]2CN(C)C(=O)c3c(O)c(=O)cnn32)n1 [Compound 115-D] | < 20 µM | ≥ 1 µM
57 | CN1C[C@H]([C@H](c2ccccc2)c2cccc(Cl)c2)n2ncc(=O)c(O)c2C1=O [Compound 9-B] | < 20 µM | < 0.25 µM
58 | CC(C)N1C[C@H]([C@@H](c2ccccc2)n2ccc(C#N)n2)n2ncc(=O)c(O)c2C1=O [Compound 127-B] | < 20 µM | < 0.25 µM
59 | CC(N)C(=O)OCOc1c2n(ncc1=O)[C@@H](C(c1ccccc1)c1ccccc1)CN(C(C)C)C2=O (stereo partly drawn) [Compound 106-A] | < 20 µM | < 0.25 µM
60 | COCCN1C[C@H](C(c2ccccc2)c2ccccc2)n2ncc(=O)c(O)c2C1=O [Compound 53-A] | < 20 µM | < 0.25 µM

Source: patent US10980805B2, “Aza-pyridone compounds and uses thereof” (Janssen BioPharma, Inc., priority 2013, dated 2021)
